For 23 molecules, MIC results are on record in patent publication US20150246898A1, “METALLOENZYME INHIBITOR COMPOUNDS” (DOW AGROSCIENCES LLC, priority 2012, published 2015).

Values after ≈ are worked out from the molar mass of the structure shown. Some results are limits rather than exact numbers.

This test has as its system Septoria tritici (ATCC 26517). The experiment in a line: Minimum Inhibitory Concentration (MIC) vs. Septoria tritici, CLSI-based microdilution. The test is classed as cell-based. To be noted: Zymoseptoria tritici, ATCC26517, 168 h; MIC = 50% reduction in growth of S. tritici, 7 days at 22 °C, RPMI/MOPS, 1% DMSO; read-out: Septoria Rating (MIC). Here is the method: Compounds of the present disclosure were assessed for their ability to inhibit the growth of a common strain of the fungal plant pathogen Septoria tritici (ATCC 26517) using a procedure based on a Clinical and Laboratory Standards Institute (CLSI) microdilution assay protocol for filamentous fungi. Stock solutions of the test compounds and standards were prepared in DMSO at 6400 μg/mL. Each stock solution was used to prepare a 2-fold dilution series ranging from 16 to 0.016 μg/mL (total of 11 compound concentrations) in RPMI-1640 (Roswell Park Memorial Institute) medium containing 3-(N-morpholino)propanesulfonic acid (MOPS) buffer and 2% DMSO. A 100 μL aliquot of the dilutions was added to columns 1 (16 μg/mL compound) through 11 (0.016 μg/mL compound) of a 96-well microtiter plate. This format was replicated in a second row of the microtiter plate. Thus, each microtiter plate could include 11 concentrations of four test or control compounds replicated twice. A 100 μL aliquot of RPMI-1640/MOPS/2% DMSO medium was added to column 12 (no compound control) of the microtiter plate. A fresh culture of S. tritici was used to prepare a solution of approximately 5×10^4 colony-forming units per milliliter (cfu/mL) in RPMI/MOPS medium without DMSO. A 100 μL aliquot of this solution was added to all 96 wells in the microtiter plate. […] In each case of Table 3 the Septoria rating scale is as follows: […]
(Dilution methods test growth across graded concentrations, often in twofold steps.)
One may read the MIC as the least concentration at which growth counts as inhibited. With `N#Cc1ccc(-c2ccc(C(F)(F)C(O)(c3cncnc3)c3ccc(F)cc3F)nc2)cc1` (racemic) [Example 4, 4-(6-(2-(2,4-difluorophenyl)-1,1-difluoro-2-hydroxy-2-(pyrimidin-5-yl)ethyl)pyridin-3-yl)benzonitrile], the minimal inhibitory concentration (MIC) is above 4 µg/mL.

For `OC(c1cncnc1)(c1ccc(F)cc1F)C(F)(F)c1ccc(C#CCOCC(F)(F)F)cn1` (racemic) [Example 6, 1-(2,4-difluorophenyl)-2,2-difluoro-1-(pyrimidin-5-yl)-2-(5-(3-(2,2,2-trifluoroethoxy)prop-1-ynyl)pyridin-2-yl)ethanol], the MIC is above 4 µg/mL.

Turning to `N#Cc1ccc(C#Cc2ccc(C(F)(F)C(O)(c3cncnc3)c3ccc(F)cc3F)nc2)cn1` (racemic) [Example 17], the MIC fell in the range of 0.5 to 1.5 µg/mL (≈ 1.05 to 3.16 µM).

Turning to `Oc1ccc(C#Cc2ccc(C(F)(F)C(O)(c3cncnc3)c3ccc(F)cc3F)nc2)cc1` (racemic) [Example 19, 4-((6-(2-(2,4-Difluorophenyl)-1,1-difluoro-2-hydroxy-2-(pyrimidin-5-yl)ethyl)pyridin-3-yl)ethynyl)phenol], the MIC was at most 0.5 µg/mL.

On to `CSc1ccc(C#Cc2ccc(C(F)(F)C(O)(c3cncnc3)c3ccc(F)cc3F)nc2)cc1` (racemic) [Example 22], for which the MIC lay in the range of 1.5 to 4 µg/mL (≈ 3.03 to 8.07 µM).

On to `O/N=C/c1ccc(C#Cc2ccc(C(F)(F)C(O)(c3cncnc3)c3ccc(F)cc3F)nc2)cc1` (racemic) [Example 23], for which the MIC fell in the range of 1.5 to 4 µg/mL (≈ 3.05 to 8.12 µM).

Take `OC(c1cccnn1)(c1ccc(F)cc1F)C(F)(F)c1ccc(C#Cc2ccc(F)cc2)cn1` (racemic) [Example 24]: the MIC was above 4 µg/mL.

In the case of `OC(c1c[nH]nn1)(c1ccc(F)cc1F)C(F)(F)c1ccc(C#Cc2ccc(F)cc2)cn1` (racemic) [Example 26], the MIC was above 4 µg/mL.

Regarding `OC(c1cncs1)(c1ccc(F)cc1F)C(F)(F)c1ccc(C#Cc2ccc(F)cc2)cn1` (racemic) [Example 28], the minimal inhibitory concentration (MIC) is 1.5 to 4 µg/mL (≈ 3.18 to 8.47 µM).

Take `OC(c1cnco1)(c1ccc(F)cc1F)C(F)(F)c1ccc(C#Cc2ccc(F)cc2)cn1` (racemic) [Example 29]: the MIC is above 4 µg/mL.

Take `OC(c1cc[nH]n1)(c1ccc(F)cc1F)C(F)(F)c1ccc(C#Cc2ccc(F)cc2)cn1` (racemic) [Example 30]: the MIC was in the range of 1.5 to 4 µg/mL (≈ 3.29 to 8.78 µM).

In the case of `O=Cc1ccc(C#Cc2ccc(C(F)(F)C(O)(c3cncnc3)c3ccc(F)cc3F)nc2)cc1` (racemic) [Example 31], the MIC was in the range of 0.5 to 1.5 µg/mL (≈ 1.05 to 3.14 µM).

`N#Cc1ccc(CCc2ccc(C(F)(F)C(O)(c3cncnc3)c3ccc(F)cc3F)nc2)cc1` (racemic) [Example 32]: the MIC is at most 0.5 µg/mL.

For `CNc1ccc(CCc2ccc(C(F)(F)C(O)(c3cncnc3)c3ccc(F)cc3F)nc2)cc1` (racemic) [Example 33], the MIC was at most 0.5 µg/mL.

As for `OC(c1cncnc1)(c1ccc(F)cc1F)C(F)(F)c1ccc(C#Cc2ccc(NCC(F)(F)F)cc2)cn1` (racemic) [Example 36], the MIC was at most 0.5 µg/mL.

Regarding `OC(c1cncnc1)(c1ccc(F)cc1F)C(F)(F)c1ccc(Oc2ccc(Cl)cc2)cn1` (racemic) [Example 40], the MIC is above 4 µg/mL.

For `N#Cc1ccc(C#Cc2ccc(C(F)(F)C(O)(c3ccc(F)cc3)c3cncnc3)nc2)cc1` (racemic) [Example 44], the MIC was above 4 µg/mL.

In the case of `CCCC(O)(c1cncnc1)C(F)(F)c1ccc(C#Cc2ccc(C#N)cc2)cn1` (racemic) [Example 45], the minimal inhibitory concentration (MIC) fell in the range of 1.5 to 4 µg/mL (≈ 3.71 to 9.89 µM).

In the case of `CCC(O)(c1cncnc1)C(F)(F)c1ccc(C#Cc2ccc(C#N)cc2)cn1` (racemic) [Example 46], the MIC was 1.5 to 4 µg/mL (≈ 3.84 to 10.2 µM).

For the molecule `COc1ccc(COc2ccc(C(F)(F)C(O)(c3cncnc3)c3ccc(F)cc3F)nc2)cc1` (racemic) [Example 49], the minimum inhibitory concentration (MIC) was 0.5 to 1.5 µg/mL (≈ 1.03 to 3.09 µM).

Take `CC(C)C(O)(c1cncnc1)C(F)(F)c1ccc(OCc2ccc(Cl)cc2F)cn1` (racemic) [Example 50]: the MIC was in the range of 1.5 to 4 µg/mL (≈ 3.43 to 9.14 µM).

Consider `CC(C)C(O)(c1cncnc1)C(F)(F)c1ccc(OCc2ccc(Cl)cc2)cn1` (racemic) [Example 53], for which the MIC was 0.5 to 1.5 µg/mL (≈ 1.19 to 3.57 µM).

For `OC(c1cncnc1)(c1ccc(F)cc1F)C(F)(F)c1ccc(OCc2ccc(C(F)F)cc2)cn1` (racemic) [Example 54], the MIC was above 4 µg/mL.
